Laboratory results published in patent US20230165831A1, “METHOD AND COMPOSITION FOR RENDERING CANCER CELLS SUSCEPTIBLE TO TREATMENT BY TARGETED ONCOGENETIC DRIVERS” (IMPACT BIOLIFE SCIENCE, INC., priority 2021, published 2023).
Where two headings read alike, the source gives them in different places.

Experiments:
[1] = tested on: Liver cancer line SK-HEP-1 cells; assay: CTG (CellTiter-Glo) cell viability assay, 6×6 combo matrix, 72 h, SK-Hep-1; conditions: Homo sapiens;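 also: luminescent signal read after 72 h compound exposure at 37 °C under 5% CO2, with medium-only wells serving as blank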
[2] = tested on: kidney cancer line 786-O cells; assay: CTG (CellTiter-Glo) cell viability assay, 6×6 combo matrix, 72 h, 786-O; conditions: for Relatively Cell inhibition of vehicle control(%): 786-O;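 as to all read-outs here: luminescence read-out after adding CellTiter-Glo reagent, with cells incubated at 37 °C under 5% CO2 during compound exposure, part of a ten cell line synergy study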
[3] = tested on: lung adenocarcinoma line A549 cells; assay: CTG (CellTiter-Glo) cell viability assay, 6×6 combo matrix, 72 h, A549; conditions: for Relatively Cell inhibition of vehicle control(%): A549;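 as to all read-outs here: luminescent ATP readout with CellTiter-Glo after compound exposure, used to assess growth inhibition and combination synergy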
Description: (§1) To measure the cell inhibition effect of compounds and synergy effect of test articles on ten (10) cell lines using standard CTG assay.
(§2) 7) Using complete cell medium, adjust the volume of the suspension to achieve a cell concentration.
(§3) A549, T47D, SK-OV-3, MKN45, SK-Hep-1, HT-29, Capan-1, 786-O and LNCaP cell line, for compounds and vehicle groups, the seeding density of cell lines is 3000 cells/80 µL per well. For blank groups, add 100 µL medium. For PBS groups, add 100 µL PBS.
(§4) 8) Incubate the U87MG, A549, T47D, SK-OV-3, MKN45, SK-Hep-1, HT-29, Capan-1, 786-O and LNCaP cells overnight at 37° C./5% CO2.
(§5) Solid compound of cis-platinum was solubilized in PBS to a stock solution of 3.333 mM.
(§6) Final volume is 100 µL per well at this point.
(§7) 5) Incubate the plates at 37° C./5% CO2 for 72 hours.
(§8) 1) Incubate the plates at room temperature and away from light for 30 minutes.
(§9) 3) Add 100 µL /well of CellTiter-Glo® Reagent in each well. Avoid light.
(§10) 4) Mix contents for 2 minutes on an orbital shaker.
(§11) 5) Incubate plate at room temperature for 10 minutes to stabilize the luminescent signal.
6) Read plates in Envision.

[4] = tested on: Liver cancer line SK-HEP-1 cells;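 also: luminescent signal read after 72 h compound exposure at 37 °C under 5% CO2, with medium-only wells serving as blank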
[5] = tested on: prostate adenocarcinoma line LNCap cells;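 also: luminescence signal read after adding CellTiter-Glo reagent, with cells exposed to compounds for 72 h at 37 °C under 5% CO2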
Description: as §1, §2
(§12) b. A549, T47D, SK-OV-3, MKN45, SK-Hep-1, HT-29, Capan-1, 786-O and LNCaP cell line, for compounds and vehicle groups, the seeding density of cell lines is 3000 cells/80 µL per well. For blank groups, add 100 µL medium. For PBS groups, add 100 µL PBS.
as §4, §5, §6, §7, §8, §9, §10, §11
6) Read plates in Envision.

[6] = tested on: glioblastoma line U87MG cells; assay: CTG (CellTiter-Glo) cell viability assay, 6×6 combo matrix, 72 h, U87MG; conditions: Homo sapiens, U-87 MG;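 also: U87MG cells seeded at 2000 per well, exposed 72 h, viability read by CellTiter-Glo luminescence, inhibition expressed relative to vehicle-treated wells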
[7] = tested on: breast cancer line T47D cells;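 also: luminescence read-out after 72 h at 37 °C under 5% CO2, with medium-only wells as blanks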
[8] = tested on: colorectal cancer line HT29 cells; assay: CTG (CellTiter-Glo) cell viability assay, 6×6 combo matrix, 72 h, HT29; conditions: for Relatively Cell inhibition of vehicle control(%): HT29;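 as to all read-outs here: cells exposed to compounds for 72 hours at 37 °C under 5% CO2, then viability read as luminescence after adding CellTiter-Glo Reagent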
Description: as §1, §2, §12, §4, §5, §6, §7, §8, §9, §10, §11
6) Read plates in Envision.

[9] = tested on: ovarian cancer line SK-OV3 cells;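 also: luminescent signal read after CellTiter-Glo addition, cells exposed to compounds for 72 h at 37 °C under 5% CO2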
Description: as §1, §2, §3, §4, §5, §6, §7, §8, §9, §10, §11
6) Read plates in Envision.

[10] = tested on: breast cancer line T47D cells; assay: CTG (CellTiter-Glo) cell viability assay, 6×6 combo matrix, 72 h, T47D; conditions: Homo sapiens;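 also: luminescence read-out after 72 h at 37 °C under 5% CO2, with medium-only wells as blanks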
[11] = tested on: gastric cancer line MKN45 cells; assay: CTG (CellTiter-Glo) cell viability assay, 6×6 combo matrix, 72 h, MKN45;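 also: MKN45 cell viability read as CellTiter-Glo luminescence after 72 h culture at 37 °C under 5% CO2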
[12] = tested on: ovarian cancer line SK-OV3 cells; assay: CTG (CellTiter-Glo) cell viability assay, 6×6 combo matrix, 72 h, SK-OV-3; conditions: for Relatively Cell inhibition of vehicle control(%): SK-OV-3;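 as to all read-outs here: luminescent signal read after CellTiter-Glo addition, cells exposed to compounds for 72 h at 37 °C under 5% CO2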
Description: as §1, §2, §3, §4, §5, §6, §7, §8, §9, §10, §11
6) Read plates in Envision.

[13] = tested on: pancreatic cancer line Capan-1 cells; assay: CTG (CellTiter-Glo) cell viability assay, 6×6 combo matrix, 72 h, Capan-1; assay type: cell-based; conditions: for Relatively Cell inhibition of vehicle control(%): Capan-1
Outline: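 Capan-1 cells were seeded at 3000 cells per well and incubated overnight at 37 °C/5% CO2. They were then treated with compounds in a 6×6 combination matrix for 72 h at 37 °C/5% CO2. Viability was read by CellTiter-Glo luminescence to assess inhibition and synergy.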

[14] = Homo sapiens, 786-0, read-out: Relatively Cell inhibition of vehicle control
[15] = Homo sapiens, A549, read-out: Relatively Cell inhibition of vehicle control(%)
[16] = Homo sapiens, HT-29, read-out: Relatively Cell inhibition of vehicle control(%)

CC[C@@]1(O)C(=O)OCc2c1cc1n(c2=O)Cc2cc3c(CN(C)C)c(O)ccc3nc2-1 [topotecan]
inhibition at […] ([1]; SK-HEP1, read-out: Relatively Cell inhibition of vehicle control, topotecan 16 nM only (myricetin table)): -4.24% | inhibition at 0.08 µM ([1]; SK-HEP1, read-out: Relatively Cell inhibition of vehicle control, topotecan 80 nM only (LB-1 table)): 9.52% | inhibition at 0.08 µM ([1]; SK-HEP1, read-out: Relatively Cell inhibition of vehicle control, topotecan 80 nM only (myricetin table)): 16% | inhibition at 0.4 µM ([1]; SK-HEP1, read-out: Relatively Cell inhibition of vehicle control, topotecan 400 nM only (LB-1 table)): 35.4% | inhibition at 0.4 µM ([1]; SK-HEP1, read-out: Relatively Cell inhibition of vehicle control, topotecan 400 nM only (myricetin table)): 37.7% | inhibition at 2 µM ([1]; SK-HEP1, read-out: Relatively Cell inhibition of vehicle control, topotecan 2000 nM only (LB-1 table)): 70.3% | inhibition at 2 µM ([1]; SK-HEP1, read-out: Relatively Cell inhibition of vehicle control, topotecan 2000 nM only (myricetin table)): 74.2% | inhibition at 10 µM ([1]; SK-HEP1, read-out: Relatively Cell inhibition of vehicle control, topotecan 10000 nM only (LB-1 table)): 98.6% | inhibition at 10 µM ([1]; SK-HEP1, read-out: Relatively Cell inhibition of vehicle control, topotecan 10000 nM only (myricetin table)): 99.1% | inhibition at 1 µM ([1]; SK-HEP1, read-out: inhibition rate, 1000 nM topotecan only (footnote of the LB-1 table)): 98.6% | inhibition at 0.08 µM [2, 14]: 68.1% | inhibition at 0.4 µM [2, 14]: 82.5% | inhibition at 2 µM [2, 14]: 91.7% | inhibition at 10 µM [2, 14]: 93.9% | Relatively Cell inhibition of vehicle control(%) ([2]; Top 80 nM only (LB-1 0)): 68.14% | Relatively Cell inhibition of vehicle control(%) ([2]; Top 400 nM only (LB-1 0)): 83.15% | Relatively Cell inhibition of vehicle control(%) ([2]; Top 2000 nM only (LB-1 0)): 91.65% | Relatively Cell inhibition of vehicle control(%) ([2]; Top 10000 nM only (LB-1 0)): 93.59% | inhibition at 0.08 µM [3, 15]: 34.9% | inhibition at 0.4 µM [3, 15]: 60% | inhibition at 2 µM [3, 15]: 79.7% | inhibition at 10 µM [3, 15]: 94.4% | Relatively Cell inhibition of vehicle control(%) ([3]; Top 16 nM only): -0.68% | Relatively Cell inhibition of vehicle control(%) ([3]; Top 80 nM only): 37.94% | Relatively Cell inhibition of vehicle control(%) ([3]; Top 400 nM only): 62.21% | Relatively Cell inhibition of vehicle control(%) ([3]; Top 2000 nM only): 80.57% | Relatively Cell inhibition of vehicle control(%) ([3]; Top 10000 nM only): 93.99% | inhibition [4]: -0.38% | inhibition [5]: 15.4% | inhibition at […] ([6]; read-out: Relatively Cell inhibition of vehicle control(%), topotecan 16 nM only): 15.6% | inhibition at […] ([6]; read-out: Relatively Cell inhibition of vehicle control(%), topotecan 16 nM only (myricetin plate)): 11.4% | inhibition at 0.08 µM ([6]; read-out: Relatively Cell inhibition of vehicle control(%), topotecan 80 nM only): 49.3% | inhibition at 0.08 µM ([6]; read-out: Relatively Cell inhibition of vehicle control(%), topotecan 80 nM only (myricetin plate)): 51.6% | inhibition at 0.4 µM ([6]; read-out: Relatively Cell inhibition of vehicle control(%), topotecan 400 nM only): 64.1% | inhibition at 0.4 µM ([6]; read-out: Relatively Cell inhibition of vehicle control(%), topotecan 400 nM only (myricetin plate)): 66.2% | inhibition at 2 µM ([6]; read-out: Relatively Cell inhibition of vehicle control(%), topotecan 2000 nM only): 73.5% | inhibition at 2 µM ([6]; read-out: Relatively Cell inhibition of vehicle control(%), topotecan 2000 nM only (myricetin plate)): 76.3% | inhibition at 10 µM ([6]; read-out: Relatively Cell inhibition of vehicle control(%), topotecan 10000 nM only): 82.1% | inhibition at 10 µM ([6]; read-out: Relatively Cell inhibition of vehicle control(%), topotecan 10000 nM only (myricetin plate)): 83.4% | inhibition [7]: 2.49% | inhibition at 0.08 µM [8, 16]: 26.1% | inhibition at 0.4 µM [8, 16]: 64.8% | inhibition at 2 µM [8, 16]: 93.2% | inhibition at 10 µM [8, 16]: 79.4% | Relatively Cell inhibition of vehicle control(%) ([8]; Top 16 nM only (Myr 0)): 11.50% | Relatively Cell inhibition of vehicle control(%) ([8]; Top 80 nM only (Myr 0)): 21.57% | Relatively Cell inhibition of vehicle control(%) ([8]; Top 400 nM only (Myr 0)): 71.12% | Relatively Cell inhibition of vehicle control(%) ([8]; Top 2000 nM only (Myr 0)): 94.54% | Relatively Cell inhibition of vehicle control(%) ([8]; Top 10000 nM only (Myr 0)): 82.42% | inhibition [9]: 23% | inhibition at […] ([10]; read-out: Relatively Cell inhibition of vehicle control(%), T47D, 16 nM topotecan only (myricetin 0)): 12.5% | inhibition at 0.08 µM ([10]; read-out: Relatively Cell inhibition of vehicle control(%), T47D, 80 nM topotecan only (LB-1 0)): 29.6% | inhibition at 0.08 µM ([10]; read-out: Relatively Cell inhibition of vehicle control(%), T47D, 80 nM topotecan only (myricetin 0)): 36.9% | inhibition at 0.4 µM ([10]; read-out: Relatively Cell inhibition of vehicle control(%), T47D, 400 nM topotecan only (LB-1 0)): 45.7% | inhibition at 0.4 µM ([10]; read-out: Relatively Cell inhibition of vehicle control(%), T47D, 400 nM topotecan only (myricetin 0)): 53.9% | inhibition at 2 µM ([10]; read-out: Relatively Cell inhibition of vehicle control(%), T47D, 2000 nM topotecan only (LB-1 0)): 58.3% | inhibition at 2 µM ([10]; read-out: Relatively Cell inhibition of vehicle control(%), T47D, 2000 nM topotecan only (myricetin 0)): 62.7% | inhibition at 10 µM ([10]; read-out: Relatively Cell inhibition of vehicle control(%), T47D, 10000 nM topotecan only (LB-1 0)): 57.7% | inhibition at 10 µM ([10]; read-out: Relatively Cell inhibition of vehicle control(%), T47D, 10000 nM topotecan only (myricetin 0)): 61.9% | Relatively Cell inhibition of vehicle control(%) ([11]; Top 16 nM only (Myr 0)): 27.49% | Relatively Cell inhibition of vehicle control(%) ([11]; Top 80 nM only (LB-1 0)): 48.98% | Relatively Cell inhibition of vehicle control(%) ([11]; Top 80 nM only (Myr 0)): 53.47% | Relatively Cell inhibition of vehicle control(%) ([11]; Top 400 nM only (LB-1 0)): 84.58% | Relatively Cell inhibition of vehicle control(%) ([11]; Top 400 nM only (Myr 0)): 85.99% | Relatively Cell inhibition of vehicle control(%) ([11]; Top 2000 nM only (LB-1 0)): 91.55% | Relatively Cell inhibition of vehicle control(%) ([11]; Top 2000 nM only (Myr 0)): 92.29% | Relatively Cell inhibition of vehicle control(%) ([11]; Top 10000 nM only (LB-1 0)): 89.36% | Relatively Cell inhibition of vehicle control(%) ([11]; Top 10000 nM only (Myr 0)): 91.07% | inhibition at 1 µM ([12]; Homo sapiens, SK-OV-3, read-out: inhibition rate): 93.9% | Relatively Cell inhibition of vehicle control(%) ([12]; Top 16 nM only (myricetin matrix)): 21.67% | Relatively Cell inhibition of vehicle control(%) ([12]; Top 80 nM only (LB-1 matrix)): 68.74% | Relatively Cell inhibition of vehicle control(%) ([12]; Top 80 nM only (myricetin matrix)): 67.77% | Relatively Cell inhibition of vehicle control(%) ([12]; Top 400 nM only (LB-1 matrix)): 83.70% | Relatively Cell inhibition of vehicle control(%) ([12]; Top 400 nM only (myricetin matrix)): 82.50% | Relatively Cell inhibition of vehicle control(%) ([12]; Top 2000 nM only (LB-1 matrix)): 90.55% | Relatively Cell inhibition of vehicle control(%) ([12]; Top 2000 nM only (myricetin matrix)): 90.97% | Relatively Cell inhibition of vehicle control(%) ([12]; Top 10000 nM only (myricetin matrix)): 94.18% | inhibition at […] ([13]; Homo sapiens, CAPAN-1, topotecan 16 nM only, read-out: Relatively Cell inhibition of vehicle control): 21% | inhibition at 0.08 µM ([13]; Homo sapiens, CAPAN-1, topotecan 80 nM only, read-out: Relatively Cell inhibition of vehicle control): 53.9% | inhibition at 0.4 µM ([13]; Homo sapiens, CAPAN-1, topotecan 400 nM only, read-out: Relatively Cell inhibition of vehicle control): 74.3% | inhibition at 2 µM ([13]; Homo sapiens, CAPAN-1, topotecan 2000 nM only, read-out: Relatively Cell inhibition of vehicle control): 88.4% | inhibition at 10 µM ([13]; Homo sapiens, CAPAN-1, topotecan 10000 nM only, read-out: Relatively Cell inhibition of vehicle control): 78.1% | Relatively Cell inhibition of vehicle control(%) ([13]; Top 16 nM only): 13.17% | Relatively Cell inhibition of vehicle control(%) ([13]; Top 80 nM only): 54.35% | Relatively Cell inhibition of vehicle control(%) ([13]; Top 400 nM only): 74.56% | Relatively Cell inhibition of vehicle control(%) ([13]; Top 2000 nM only): 88.92% | Relatively Cell inhibition of vehicle control(%) ([13]; Top 10000 nM only): 81.26%
